{
  "source": "BindingDB's records for doi:10.1021/jm00039a013",
  "about": "(Pfizer, 1994)",
  "experiment": "Inhibitory activity against acetylcholinesterase in mice at the dose of 4.8 mg/kg via intraperitoneal administration",
  "note": "pIC50: −log10 of the molar value.",
  "data": [
    {"compound": "CCCCCCCNC(=O)Oc1ccc2c(c1)[C@]1(C)CCN(C)[C@@H]1N2C", "note": "[(3aS,8aR)-1,3a,8-trimethyl-1H,2H,3H,3aH,8H,8aH-pyrrolo[2,3-b]indol-5-yl N-heptylcarbamate]", "values": [
      {"measurement": "pIC50", "result": 6.83}
    ]}
  ]
}
